These are literature values, as cited in US20230139565A1 (GLANIS PHARMACEUTICALS, INC., priority 2020, published 2023).

Counter-ions that a name gives are not always drawn.

Test in data set [1]: not given
The source holds these as a separate data set.

Data set [2] relates to albumin and aphal-acid glycoprotein.

As for `CCN(CCO)CCCC(C)Nc1ccnc2cc(Cl)ccc12` (stereo not shown) [Hydroxychloroquine sulfate], for the setting “alcohol, chloroform, ether”, the “solubility in alcohol, chloroform, and in ether” value is on record as “practically insoluble”. Moreover, where the note is “water”, the solubility in water result is “freely soluble”.
In the case of `CCN(CCO)CCCC(C)Nc1ccnc2cc(Cl)ccc12` (stereo not shown) [HCQ, Hydroxychloroquine], the “terminal half-life based on blood concentration” value in data set [1] (blood) is 30 to 60 days. The “time of peak concentration” value in data set [1] (following 200 mg oral dose) was “around 3 hours”. In addition, the “peak concentration in blood” value in data set [1] (following 200 mg oral dose, blood) is “around 129.6 ng/ml”. In data set [1] (following 200 mg oral dose, plasma), the “plasma concentration (peak)” value is “around 50.3 ng/ml”. In addition, in data set [1] (in vivo), the half-life (in general, the time in which the quantity being followed falls by half) was around 2.08 days and the volume of distribution entry is given as “high volume of distribution”. For the same compound, the oral bioavailability entry in data set [1] (oral tablet) is reported as “about 75%”. For the same compound, the protein binding in data set [2] is around 40%.
